For 65 molecules, LC retention time results are on record in the RepoRT retention time repository.

This data set in a line: RP, Waters ACQUITY UPLC BEH C18, 50 × 2.1 mm, 1.7 µm, 40 °C, 0.6 mL/min, estimated dead time 0.18 min; A: water + 0.1% formic acid, pH 3; B: acetonitrile + 0.1% formic acid, pH 3; gradient (min/%B) 0/5 7/100 8/100. The following applies: stereoisomer not certain.

`CC(=O)OC(C)(C)/C=C/C(=O)[C@](C)(O)[C@H]1[C@H](O)C[C@@]2(C)C3CC=C4C(CC(=O)C(O)C4(C)C)[C@]3(C)C(=O)C[C@]12C` (stereo not given in full): the LC retention time is 2.88 min.

Take `COC1=C(C)C(=O)O/C1=C1\OC2CCCN3C(C4CC(C)C(=O)O4)CCC3C2C1C` (stereo not given): the LC retention time is 1.55 min.

As for `COc1c2occc2cc2ccc(=O)oc12` [9-methoxy-7H-furo[3,2-g]chromen-7-one], the LC retention time was 2.49 min.

`COc1cc(CC(COC(C)=O)C(COC(=O)/C=C/c2ccc(O)c(O)c2)Cc2ccc(O)c(OC)c2)ccc1O` (stereo not given): the LC retention time was 1.83 min.

Regarding `CN1CCc2ccc(O)c3c2C1Cc1cc2c(cc1O3)OCO2` (stereo not given), the LC retention time is 1.4 min.

For `CC1(C(=O)O)CCCC2(C)C3CCC4CC3(C=C4C=O)CCC12` (stereo not given), the LC retention time is 4 min.

As to `CC/C=C/CC(O)C(O)/C=C/C(O)CCCCCCCC(=O)O` (stereo not given) [(10E,15E)-9,12,13-trihydroxyoctadeca-10,15-dienoic acid], the LC retention time is 2.6 min.

Consider `CC(=O)OC(C)(C)CCC(=O)[C@](C)(O)C1[C@H](O)C[C@@]2(C)C3CC=C4C(C[C@H](O)[C@@H](O)C4(C)C)[C@]3(C)C(=O)C[C@]12C` (stereo not given in full), for which the LC retention time is 3.06 min.

On to `CC(C)=CCCC(C)C12C=CC(C)(CC1)OO2` (stereo not given), for which the LC retention time was 4.96 min.

In the case of `CC[C@@H]1C(=O)N2CCc3c([nH]c4ccccc34)[C@H]2CC1/C(=C\OC)C(=O)OC` (stereo not given in full), the LC retention time is 2.38 min.

In the case of `COC1=CC(=O)C2(c3cc(=O)c4c(O)cc(O)cc4o3)C(CC=C(C)C2C[C@H]2[C@@H](C)[C@@H](O)C[C@H]3C(C)(C)C[C@H](O)C[C@]23C)C1=O` (stereo not given in full), the LC retention time is 1.14 min.

Turning to `CCCCCCCCCCC[C@@H]1CCC[C@@H](C)N1` [(2R,6R)-2-methyl-6-undecylpiperidine], the LC retention time was 4.03 min.

For `CC(C)=CC1CC(C2CCC3(C)C4=CCC5C(C)(C)C(=O)CCC5(C)C4CC(C=O)=C23)C(O)O1` (stereo not given), the LC retention time was 4.03 min.

With `CC[C@H]1NC2C[C@@]3(C(=O)N(OC)c4cc(OC)ccc43)C3OCC2C1[C@@H]3O` (stereo not given in full), the LC retention time is 1.32 min.

With `COC(=O)CC(C1=C2OC(=O)C(C(=O)CC(C)C)=C(O)C2(CC=C(C)C)CC(CC=C(C)C)C1(C)C)c1ccccc1` (stereo not given), the LC retention time is 6.83 min.

Regarding `C=C1[C@@H](O)C[C@H]2[C@](C)(CO)CCC[C@]2(C)[C@H]1CC1C(C)=CCC2C(=O)C(OC)=CC(=O)C21c1cc(=O)c2c(O)cc(O)cc2o1` (stereo not given in full), the LC retention time is 3.02 min.

With `C=C(C(=O)C(O)C(C)C1C(OC(C)=O)CC2(C)C3CCC4C(C)C(=O)CCC45CC35CCC12C)C(C)CO` (stereo not given), the LC retention time is 4.6 min.

Take `CCN1CC2(COC(=O)c3ccccc3N)CCC(OC)C34C5CC6C(OC)CC(O)(C5C6OC)C(O)(C(OC)C23)C14` (stereo not given): the LC retention time was 2.4 min.

Regarding `COC(=O)C1=CC(O)C23OC1CC2(C)CC[C@H](C(C)C)O3` (stereo not given in full), the LC retention time is 3.33 min.

For `COc1cc2c3c(c1OC)Oc1ccc(cc1)CC1c4c(cc(OC)c5c4Oc4ccc(cc4CO5)CC3N(C)CC2)CCN1C` (stereo not given), the LC retention time is 1.6 min.

`C/C=C/C(=O)CC1C(=O)C=CC1(CCCCCCCC(=O)O)OC(C)=O` (stereo not given): the LC retention time is 2.74 min.

For the molecule `C/C=C1/CN2CCc3c([nH]c4ccccc34)[C@@](CO)(C(=O)OC)[C@H]1CC2`, the LC retention time is 1.32 min.

With `COc1ccc(C(=O)[C@@H](c2coc3cc(O)ccc3c2=O)C(c2ccc(O)cc2)c2ccc(O)cc2)c(OC)c1`, the LC retention time is 3.68 min.

As for `CC1=CC(C2OC3CCCN4C(C5CC(C)C(=O)O5)CCC4C3C2C)OC1=O` (stereo not given), the LC retention time is 1.27 min.

Take `C=C1C(=O)C23C(O)CC4C(C)(C)CCCC4(COC(C)=O)C2C(O)CC1C3O` (stereo not given): the LC retention time is 2.42 min.

For the molecule `C=C(C)C12CC(C)C34OC(CCCCCCCCCCCCC)(OC1C3C1OC1(CO)C(O)C1(O)C(=O)C(C)=CC14)O2` (stereo not given), the LC retention time is 6.97 min.

`CCN1CC2(COC(=O)c3ccccc3N3C(=O)CC(C)C3=O)CCC(OC)C34C5CC6C(OC)CC(O)(C5C6OC)C(O)(C(OC)C23)C14` (stereo not given): the LC retention time was 2.22 min.

Take `COc1c(CC=C(C)C)c(O)c(CC=C(C)C)c(O)c1C(=O)c1ccc(O)cc1`: the LC retention time was 4.77 min.

As to `CC(C)=CCC1CC2(CC=C(C)C)C(O)=C(C(=O)C(C)C)C(=O)OC2=C(C(CC(=O)O)c2ccccc2)C1(C)C` (stereo not given), the LC retention time is 6.13 min.

Consider `COc1cc(-c2oc3cc(OC)c(OC)c(O)c3c(=O)c2OC)ccc1O`, for which the LC retention time is 2.66 min.

With `C/C=C1/CN(C)C[C@H]2Cc3c([nH]c4ccccc34)C(=O)C[C@@H]12`, the LC retention time was 1.62 min.

Turning to `C[C@@H]1O[C@@H](O[C@@H]2C(O[C@H]3CC[C@@]4(C)C(CC[C@]5(C)C4CC=C4C6CC(C)(C)CC[C@]6(C(=O)O)CC[C@]45C)[C@]3(C)CO)OC[C@@H](OC3O[C@H](CO)[C@@H](O)[C@H](O)[C@H]3O)[C@H]2O)[C@H](O)[C@H](O[C@@H]2OC[C@@H](O)[C@H](O)[C@H]2O)[C@H]1O` (stereo not given in full), the LC retention time was 2.21 min.

On to `CCCCCCCCCCC/C=C\CC[C@@H]1CCC[C@@H](C)N1` [(2R,6S)-2-methyl-6-[(3Z)-pentadec-3-en-1-yl]piperidine], for which the LC retention time is 4.84 min.

Take `COc1cc2c(cc1OC)Oc1c(O)ccc3c1C(C2)N(C)CC3` (stereo not given): the LC retention time is 1.37 min.

For `C[C@@H]1CC2(NCCS2)[C@]2(O)OC3C[C@@]4(C=O)C(CCC5C4CC[C@]4(C)C(C6=CC(=O)OC6)CC(O)[C@]54O)CC3OC2O1` (stereo not given in full), the LC retention time was 0.365 min.

As to `CC(C)=CCc1c2c(c(O)c3c1OC14C(=CC5CC1C(C)(C)OC4(CC=C(C)C(=O)O)C5=O)C3=O)C=CC(C)(C)O2` (stereo not given), the LC retention time was 5.38 min.

Consider `O=C(c1ccc(O)cc1O)[C@H]1[C@H](C(=O)c2ccc(O)cc2O)[C@H](c2ccc(O)cc2)O[C@@H]1c1ccc(O)cc1`, for which the LC retention time was 2.81 min.

Turning to `C=C(C)C1CCC2(C(=O)O)CCC3(C)C(CCC4C5(C)CCC(OC(=O)/C=C/c6ccc(O)c(O)c6)C(C)(C)C5CCC43C)C12` (stereo not given), the LC retention time was 5.65 min.

Turning to `CC1CC(O)C2(C)C(CCC(O)C2(C)O)C1(C)CC(=O)c1ccoc1` (stereo not given), the LC retention time was 2.35 min.

For the molecule `COc1c(C=O)c(O)cc2c1C(=O)c1ccccc1C2=O`, the LC retention time is 3.59 min.

With `COC(=O)C1=COC(C)C2CN3CCC4(C(=O)Nc5ccccc54)C3CC12` (stereo not given), the LC retention time was 1.69 min.

With `CCC(C)C(=O)C1=C(O)C2(CC=C(C)C)CC(CC=C(C)C)C(C)(C)C(C(CC(=O)O)c3ccccc3)=C2OC1=O` (stereo not given), the LC retention time is 6.36 min.

Consider `COc1ccc([C@@]23Oc4cc5c(c(OC)c4[C@]2(O)[C@H](O)[C@H](C(=O)N(C)C)[C@H]3c2ccccc2)OCO5)cc1`, for which the LC retention time was 3.26 min.

Consider `CCC1CC2CC3(C(=O)OC)c4[nH]c5ccccc5c4CCN(C2OC)C13` (stereo not given), for which the LC retention time is 1.77 min.

On to `CC1(C)CCC[C@]2(COC(=O)/C=C/c3ccc(O)c(O)c3)C1CC[C@@]13C[C@@H](CCC12)[C@@](O)(CO)C3` (stereo not given in full), for which the LC retention time is 3.16 min.

For `CCC1C2CCCCN3C(C4CC(C)C(=O)O4)CC(C4C(C)C(=O)OC14)C23` (stereo not given), the LC retention time is 1.55 min.

Turning to `CC(=O)OC(C)(C)C=CC(=O)C(C)(O)C1C(O)CC2(C)C3CC=C4C(=COC(=O)C4(C)C)C3(C)C(=O)CC12C` (stereo not given), the LC retention time was 3.14 min.

As for `CCCCCCCCCCCCCCC(O)C(O)CCC(O)C1CCC(CCCCCC(O)CC2=CC(C)OC2=O)O1` (stereo not given), the LC retention time was 6.01 min.

With `CC(C)=CC(O)C[C@@H](C)[C@H]1CC[C@@]2(C)C3C(=O)C=C4C(CCC(O)C4(C)C)[C@]3(C)CC[C@]12C` (stereo not given in full), the LC retention time is 4.38 min.

Turning to `C=C(C)C(CCC(C)(C)O)Cc1c(O)cc(O)c2c1OC(c1ccc(O)cc1O)CC2=O` (stereo not given), the LC retention time was 2.97 min.

Turning to `C=C(CO)C(=O)OC1CC(=C)C2CC(O)C(=C)C2C2OC(=O)C(=C)C12` (stereo not given), the LC retention time was 2.16 min.

Regarding `COc1cc(CCN(C)C)c2ccc3cc4c(c5c3c2c1OC5)OCO4`, the LC retention time is 2.24 min.

Regarding `CCCCCCCCCCCCO[C@@H]1O[C@@H](C)[C@H](O[C@@H]2O[C@@H](C)[C@H](OC(C)=O)[C@@H](O[C@@H]3O[C@@H](C)[C@H](OC(C)=O)[C@@H](O[C@@H]4O[C@@H](C)[C@H](OC(C)=O)[C@@H](O)[C@H]4O)[C@H]3OC(C)=O)[C@H]2O)[C@@H](O)[C@H]1O`, the LC retention time was 5.82 min.

As for `CCCCCCCCCCCCCCCC(=O)OC12CC(C)C3(O)C(C4OC4(CO)C(O)C4(O)C(=O)C(C)=CC43)C1C2(C)C` (stereo not given), the LC retention time was 6.96 min.

As to `COc1c(O)c(O)c(-c2c(O)c(O)c(OC)c3oc4ccccc4c23)c2c1oc1ccccc12`, the LC retention time is 3.58 min.

`CC1CC(C2CCC3N2CCCCC32CC(C)C(=O)O2)OC1=O` (stereo not given): the LC retention time is 1.07 min.

Turning to `COc1ccc(C(=O)[C@@H](c2coc3cc(O)ccc3c2=O)C(c2ccc(O)cc2)c2ccc(O)cc2)c(O)c1`, the LC retention time was 3.14 min.

As for `COc1c(O)c(C(=O)C2CC=C(CCC=C(C)C)CC2c2ccccc2)c(OC)c(OC)c1OC` (stereo not given), the LC retention time was 5.69 min.

Take `O=C1c2c(O)cc(O)c(C3C(=O)c4c(O)cc(O)cc4OC3c3ccc(O)cc3)c2OC(c2ccc(O)cc2)C1O` (stereo not given): the LC retention time was 1.54 min.

As for `C=C(C)[C@@]12OC3(/C=C/C=C\CCCCC)O[C@@H]1C1[C@@H]4O[C@]4(CO)[C@@H](O)[C@]4(O)C(=O)C(C)=CC4[C@@]1(O3)[C@H](C)[C@H]2OC(=O)c1ccccc1` (stereo not given in full), the LC retention time was 5.88 min.

On to `COc1c(O)ccc2c1C(OC)N(C)c1c-2ccc2cc3c(cc12)OCO3` (stereo not given), for which the LC retention time is 2.48 min.

Take `COc1ccc2c(c1OC)C(=O)OC2C1c2c(cc3c(c2OC)OCO3)CCN1C` (stereo not given): the LC retention time is 1.83 min.

Consider `O=C1c2c(O)cc(O)c(C3C(=O)c4c(O)cc(O)cc4OC3c3ccc(O)cc3)c2OC(c2ccc(O)c(O)c2)C1O` (stereo not given), for which the LC retention time is 0.319 min.

As for `CCCCCCCCC/C=C\CCCC[C@@H]1CCC[C@@H](C)N1` [(2R,6R)-2-methyl-6-[(5Z)-pentadec-5-en-1-yl]piperidine], the LC retention time was 4.68 min.

As for `CC[C@H]1NC2C[C@@]3(C(=O)N(OC)c4ccccc43)C3CC1C2CO3` (stereo not given in full), the LC retention time is 1.79 min.
